# Key:
# [1] = Body weight and clinical observation of NPG mice during administration; format: in vivo; conditions: BS 30 and 90 mg/kg, intraperitoneal injection
# Experimental: All animals were observed once a day during the experiment period. The observation content included death or dying, feces, a feeding status, a mental status, and behavioral activities, etc. If any abnormal situation was found, it was recorded in time. All animals were weighed once before grouping, three times per week after administration, and once before euthanasia.
# No clinical abnormal symptoms or animal deaths due to drug toxicity were observed during this experiment.
# [2] = Distribution of BS in brain tissue of U87 nude mice by ICP-MS (selenium content); format: in vivo; conditions: Balb/c nude, mouse, BS 30 mg/kg, injection dosage form (intraperitoneal), after the experiment, calculated from selenium content
# Experimental: The general condition of the animals and the time of tumor occurrence were recorded daily during the experiment, a long diameter and a short diameter of tumors in the mice were recorded daily, and a tumor volume was calculated according to a formula: long diameter×(short diameter)^2×0.5236, and a body weight of the animals were measured every 3 days. After 18 days of administration, anesthesia was performed with chloral hydrate, and eyeballs were removed for blood collection. The mice were sacrificed, tumors, hearts, livers, spleens, lungs, kidneys, thymuses, whole brains, and intestines were rapidly isolated, blood stains were washed away with ice saline, the tumors, hearts, livers, spleens, lungs, kidneys, thymuses, whole brains, and intestines were wiped to be dry with filter paper, whether there were lesions in internal organs of the animals were observed, and the tumors, hearts, livers, spleens, lungs, kidneys, thymuses, whole brains, and intestines were weighed. […] Distribution of the Se content in brain tissue was detected by Inductively coupled plasma-Mass Spectrometry (ICP-MS).
# Brain tissues of the mice after the experiment of BS+TMZ gavage (90+10 mg/kg) and BS intraperitoneal injection (30 mg/kg) were taken and detected by ICP-MS. By detecting the selenium content per gram of brain tissue, the BS content per gram of brain tissue was calculated. […]
# [3] = Distribution of BS in brain tissue of ICR mice after intraperitoneal injection, ICP-MS; format: in vivo; conditions: female, mouse, ip, intraperitoneal injection 90 mg/kg
# Experimental: The distribution of BS in mouse brain tissue was examined as follows: Brain glioma is located in the skull and has a special lesion location. Thus, it is critical whether a drug can cross the blood-brain barrier and act at the lesion site. In order to detect whether BS can reach brain tissue through the blood-brain barrier, female six-week-old ICR mice were selected for the study. The mice were intraperitoneally injected with 90 mg/kg of BS, and brain tissues before administration and brain tissues at 0.5 h, 1 h, 2 h and 3 h after administration were taken for ICP-MS detection. The BS content per gram of brain tissue was calculated by detecting the selenium content per gram of brain tissue.
# [4] = system: U87 brain glioma subcutaneous model; assay: Administration by injection (intraperitoneal) experiment of U87 brain glioma subcutaneous model in Balb/c nude mice; format: in vivo
# Source text: After 2 days of animal acclimation, qualified animals were retained and randomized into 5 groups, with 6 animals in each group of a control group, a TMZ group, and a BS group. There were 5 animals in each group of the BS+TMZ treatment group and the BS+TMZ prevention group. Mice in the BS group were inoculated subcutaneously in right axillas with U87 cells at 2×10^6/mouse. Administration was started to be performed 14 days after inoculation, which was day 0 of treatment. Administration was performed for a total of 18 days.
# A drug treatment regimen was as follows: Blank control group (0.9% NaCl, i.p., q.d.); TMZ group (10 mg/kg, i.p., qd.); BS group (30 mg/kg, i.p., q.d.); BS+TMZ treatment group (10 mg/kg of TMZ, i.p., qd., and 90 mg/kg of BS, i.g., q.d.); BS+TMZ prevention group (10 mg/kg of TMZ, i.p., qd., and 90 mg/kg of BS, i.g., q.d.). […] were injected into tail veins.
# (§1) The general condition of the animals and the time of tumor occurrence were recorded daily during the experiment, a long diameter and a short diameter of tumors in the mice were recorded daily, and a tumor volume was calculated according to a formula: long diameter×(short diameter)^2×0.5236, and a body weight of the animals were measured every 3 days. After 18 days of administration, anesthesia was performed with chloral hydrate, and eyeballs were removed for blood collection. The mice were sacrificed, tumors, hearts, livers, spleens, lungs, kidneys, thymuses, whole brains, and intestines were rapidly isolated, blood stains were washed away with ice saline, the tumors, hearts, livers, spleens, lungs, kidneys, thymuses, whole brains, and intestines were wiped to be dry with filter paper, whether there were lesions in internal organs of the animals were observed, and the tumors, hearts, livers, spleens, lungs, kidneys, thymuses, whole brains, and intestines were weighed. A portion of tumor tissue was taken and stored in liquid nitrogen for RNA and protein extraction. Another portion of tumor tissue was placed in a tissue fixative solution for fixation. Distribution of the Se content in brain tissue was detected by Inductively coupled plasma-Mass Spectrometry (ICP-MS).
# Female six-week-old Balb/c Nude mice were selected to establish an animal model and inoculated subcutaneously with U87 human-derived glioma cells at 2×10^6/mouse. Administration was started to be performed on day 14 after inoculation, and was continued to be performed for 18 days.
# To compare the difference in efficacy between oral gavage administration and intraperitoneal injection administration, the control group, the TMZ group (10 mg/Kg) and the BS group (30 mg/Kg) were administered intraperitoneally once a day in this round of experiment. The mice in the control group were given 0.9% NaCl.
# To compare the therapeutic efficacy and preventive efficacy of the combined application of BS and TMZ, combined administration groups were set in this round of experiment: a BS+TMZ treatment group (90 mg/Kg of BS&10 mg/Kg of TMZ) and a BS+TMZ prevention group (90 mg/Kg of B S& 10 mg/Kg of TMZ). The B S+TMZ treatment group was abbreviated as a BS+TMZ (A) group, and tumors with a volume of more than 20 mm^3 were normally formed in the mice on day 14 after U87 inoculation, and the administration was started to be performed to observe the efficacy of the combined use on inhibiting tumor proliferation. The BS+TMZ prevention group is abbreviated as a BS+TMZ (B) group, and tumors with a volume of less than 20 mm^3 were formed in the mice on day 14 after U87 inoculation, and the administration was started to observe the efficacy of the combined use on the prevention of tumor formation. The mice in the combined groups were administered by single daily oral gavage. The start time of administration was Day 1, a second day of administration was Day 2, and so on.
# [5] = system: high-grade astrocytoma in human spinal cord; assay: Subcutaneous patient-derived xenograft (PDX) mouse model of high-grade astrocytoma in human spinal cord; format: in vivo, NPG mice; conditions: for tumor sizes at the end of the experiment: no unit at the values (tumor volume formula in mm^3), in mm³; for tumor volume inhibition rate: end of experiment
# Experimental: • 1) Grouping of animals: the animals were subcutaneously inoculated with tumor tissue pieces, and after tumors were formed in the animals, the animals were grouped based on a principle of a similar mean tumor volume; • 2) Mode of administration: intraperitoneal injection of BS and TMZ (i.p., q.d.×17 days); • 3) Detection indexes: mouse body weight and subcutaneous tumor volume.
# BS injections, with a drug content being 30 mg of BS and 90 mg of BS; and 1 mg of TMZ was weighed and dissolved in 1 ml of 0.5% CMC-Na and the obtained solution was uniformly dispersed by an ultrasound-assisted manner to obtain a TMZ drug solution, which was prepared immediately before use each time.
# • Animal species: NPG mice, Animal grade: SPF grade, and Sex and number: female, 32 • Animal weight range: 20-25 g, Animal age range: 5-6 weeks old, and Animal source: Beijing Vitalstar Biotechnology Co., Ltd.
# The animals were randomly divided into four groups according to Table 5, with 8 animals in each group of a control group, a BSL group, a BSH group and a TMZ group.
# Tumor masses (2-3 mm^3) of high-grade astrocytoma in a human spinal cord were prepared and inoculated in right axillas of NPG mice, and after inoculation, a mouse status was routinely observed and the tumor size was measured. Screening was performed according to the tumor volume, animals with a tumor volume of 450 mm^3 were selected for the experiment, and those with an excessive tumor volume and no tumor formation were not selected. A total of 32 suitable tumor-bearing animals were screened for the experiment, and were divided into 4 experimental groups, with 8 mice in each group. The day of first administration was recorded as D1, a second day of administration was recorded as D2, and so on. All animals were administered through single daily intraperitoneal injection for 24 consecutive days.
# During the experiment, a long diameter and a short diameter of the tumors in all the animals were measured daily. And a tumor volume (mm^3) was calculated and a formula was as follows: Tumor volume=0.5236×long diameter×short diameter×short diameter.
# [6] = Body weight and general condition of U87 tumor-bearing nude mice during administration; format: in vivo, Balb/c nude mice
# Experimental: as §1
# [7] = system: U87 brain glioma subcutaneous model; assay: Gavage administration experiment of U87 brain glioma subcutaneous model in Balb/c nude mice; format: in vivo; conditions: BS 90 mg/kg, oral administration (i.g., q.d.), 11 days
# Experimental: After 2 days of animal acclimation, qualified animals were retained and randomized into 6 groups, with 7 animals in each group. Mice were inoculated subcutaneously in right axillas with U87 cells at 2×10^6/mouse. Administration was started to be performed 12 days after inoculation, which was day 0 of treatment. Administration was performed for a total of 11 days.
# A drug treatment regimen was as follows: Blank control group (0.5% CMC-Na, i.g., q.d.); TMZ group (30 mg/kg, i.g., q.d.); BSL group (10 mg/kg, i.g., q.d.); BSM group (90 mg/kg, i.g., q.d.); BSH group (180 mg/kg, i.g., q.d.); and BSM+TMZ group (30 mg/kg of TMZ, 90 mg/kg of BS, i.g., q.d.).
# The general condition of the animals and the time of tumor occurrence were recorded daily during the experiment, a long diameter and a short diameter of tumors in the mice were recorded daily, and a tumor volume was calculated according to a formula: long diameter×(short diameter)^2×0.5236, and a body weight of the animals were measured every 3 days. After 18 days of administration, anesthesia was performed with chloral hydrate, and eyeballs were removed for blood collection. […] Distribution of the Se content in brain tissue was detected by Inductively coupled plasma-Mass Spectrometry (ICP-MS).
# [8] = Solubility of butaselen in water; format: physicochemical
# [9] = BS 30 mg/kg, intraperitoneal injection, q.d., 18 days, end of experiment
# [10] = BS 30 mg/kg, intraperitoneal, end of experiment
# [11] = TMZ 10 mg/kg, intraperitoneal, experiment in this group ended early on day 12
compound,measurement,setting,value
"O=c1c2ccccc2[se]n1CCCCn1[se]c2ccccc2c1=O [BS, butaselen]",toxic and side effects on the NPG mice,[1],no obvious toxic and side effects
same,weight loss,[1]; NPG mice,no significant weight loss
same,concentration at 18 days,[2],121 ng/g
same,concentration at 0.5 h,[3]; 0.5 h after administration,439 ng/g
same,concentration at 1 h,[3]; 1 h after administration,372 ng/g
same,concentration at 2 h,[3]; 2 h after administration (peak),528 ng/g
same,concentration at 3 h,[3]; 3 h after administration,419 ng/g
same,Tumor volume (mm^3),[4]; [9],105.18±66.62 mm^3
same,Volume inhibition rate (%),[4]; [9],81.12%
same,Tumor weight,[4]; [10],0.13 ± 0.08 g
same,Weight inhibition rate (%),[4]; [10],66.67%
same,tumor sizes at the end of the experiment,[5]; BS 30 mg/kg i.p. q.d.,4593.83±2725.69
same,tumor sizes at the end of the experiment,[5]; BS 90 mg/kg i.p. q.d.,2999.76±2191.03
same,tumor volume inhibition rate,[5]; high-dose BS group (90 mg/kg i.p.),35.19%
same,tumor volume inhibition rate,[5]; low-dose BS group (30 mg/kg i.p.),-10.54%
same,toxic and side effects on tumor-bearing nude mice,"[6]; BS group, BS+TMZ (A) and (B) groups, normal diet, activities, mental status",no obvious toxic and side effects
same,Tumor volume (mm^3),[7],122.05±33.15 mm^3
same,Volume inhibition rate (%),[7],78.87%
same,solubility,[8],~0.15 µg/mL
"Cn1nnc2c(C(N)=O)ncn2c1=O [TMZ, temozolomide, reference compound]",Tumor volume (mm^3),[4]; [11],343.23±245.20 mm^3
same,Tumor weight,[4]; [11],0.19 ± 0.08 g
same,tumor sizes at the end of the experiment,[5]; TMZ 5 mg/kg i.p. q.d.,2693.29±1682.23
same,tumor volume inhibition rate,[5]; TMZ group (5 mg/kg i.p.),27.82%
same,body weight of the mice,"[6]; TMZ group (30 mg/Kg as printed), U87 tumor-bearing nude mice, group ended on day 12",significantly decreased

# From patent publication EP4620468A1, “BUTASELEN-CYCLODEXTRIN INCLUSION COMPLEX, PHARMACEUTICAL COMPOSITION, METHOD FOR PREPARING SAME, AND USE THEREOF” (Shanghai Yuanxi Medicine Corp., priority 2022, dated 2024)
